Experimental data reported in PMC11695783 (Frontiers in Pharmacology, 2024).
Several values for one entry are separate records, joined by “and”; a condition that tells them apart may be missing. Identical values can stand only once.

Assay: Pharmacokinetic studies in mice (intravenous and intramuscular, plasma, HPLC-MS/MS)
Type: in vivo, BALB/c mice
Set-up: AUClast / AUCall / AUCINF_obs / AUCINF_pred / AUCINFobs: concentration or dose not given beside the values; Tlast / Clast / AUMClast / AUMCINF_obs / AUMCINF_pred / Lambda_z / HL_Lambda_z / Cl_obs / Cl_pred / Cl_F_obs / Tlag / Cl_F_pred: unit not given here
Conditions: for plasma concentration, AV: average of mice; for plasma concentration: individual mice 1-8
Method: Pharmacokinetic experimental procedures of compound 16C were measured according to previous reports with some modifications ([Wang et al., 2022]). In brief, BALB/c mice were divided into two groups of eight mice each; one group was injected intravenously and the other was injected intramuscularly with compound 16C at a dose of 10 mg/kg. The dose was based on previous studies of novel pleuromutilin derivatives ([Jin et al., 2019]; [Wang et al., 2022]). Meanwhile, the dose of tiamulin approved by the European Union for intramuscular administration is 10–20 mg/kg ([EMA, 1999]). The volume of the injection was 0.1 mL/10 g. The compound 16C formulation was a filtered solution in 5% DMSO, 5% Tween-80, and 90% normal saline. Blood was obtained from eight mice via the ocular venous plexus at 0.083, 0.167, 0.25, 0.334, 0.5, 0.75, 1, 1.5, 2, 3, 4, 6, 8, and 12 h following tail intravenous or thigh Intramuscular injection. A glass capillary with a diameter of 0.3 mm was inserted into the outer canthus of the mouse, and 200 μL blood was collected using a 1.5 mL anticoagulant centrifuge tube. The blood was centrifuged at 3,000 rpm for 10 min to obtain plasma. 100 μL of plasma was aspirated for drug concentration detection, and eight parallel samples from different mice were obtained at each time point.
All pharmacokinetic experimental samples and method validation samples were added with 4 times the volume of acetonitrile and shaken for 1 min, centrifuged at high speed at 13,000× g for 10 min, and the supernatants were taken and filtered to detect the drug concentration. Some samples with high concentrations were diluted to the linear range prior to analysis.
The extracted samples were analyzed using a high-performance liquid chromatography-tandem mass spectrometry (HPLC-MS/MS) system (Agilent, Santa Clara, CA, United States) 1200 HPLC and Applied Biosystems (Waltham, MA, United States) API 4000 mass spectrometer). HPLC-MS/MS analysis using a Zorbax Eclipse XDB-C18 (4.6 × 50 mm, 3.5 μm) column (Agilent). The mobile phase A (acetonitrile) and B (water) were applied as a gradient as follows: 0–3 min: 15%–95% A and maintain from 3 min to 5 min at 95% A. 5–5.1 min: 95%–15% A and maintain from 5.1 to 10 min at 15% A. Flow rate: 500 μL/min; column temperature: 30°C and injection volume: 4 μL. The electrospray ionization (ESI) source of the mass spectrometer was operated in […], with the following ion source parameters: ion spray voltage 4,500 V, collision gas 7 psi, ion source gas 1 55 psi, ion source gas 2 40 psi, curtain gas 20 psi, source temperature 600°C. The precursor ion m/z of Compound 16C was 633.3, and the product ions m/z were 272.0 (quantifier) 286.9 and 313.0. Declustering potentials (DP) were 140, 140, and 144 V, respectively; entrance potential (EP) was 10 V; collision energy (CE) was 55, 46, and 15 V, respectively; and collision cell exit potential (CXP) was 14 V.
[…] Pharmacokinetic parameters include time to maximum concentration (Tmax), maximum concentration (Cmax), the area under the plasma concentration–time curve (AUC0-∞), clearance rate (CL), the apparent volume of distribution (Vd), bioavailability (F), elimination half-life (T1/2kel) and absorption half-life (T1/2ka).

With `C=C[C@]1(C)C[C@@H](OC(=O)CSc2ccc(NC(=O)Cc3ccc([N+](=O)[O-])cc3)cc2)[C@]2(C)[C@H](C)CC[C@]3(CCC(=O)[C@H]32)[C@@H](C)[C@@H]1O` the “plasma concentration, AV” value (IM, 0.083h) was 409.1 ng/mL, the “plasma concentration, AV” value (IM, 0.17h) was 470.8 ng/mL and the “plasma concentration, AV” value (IM, 0.25h) was 496 ng/mL. The “plasma concentration, AV” value (IM, 0.33h) was 490 ng/mL, the “plasma concentration, AV” value (IM, 0.5h) was 449.1 ng/mL and the “plasma concentration, AV” value (IM, 0.75h) was 404.2 ng/mL. For the same compound, the “plasma concentration, AV” value (IM, 1h) was 281.2 ng/mL, the “plasma concentration, AV” value (IM, 1.5h) was 246.4 ng/mL and the plasma concentration (IM, 1.5h) was 189 ng/mL and 266 ng/mL and 253 ng/mL and 291 ng/mL and 290 ng/mL and 328 ng/mL and 158 ng/mL and 196 ng/mL. The “plasma concentration, AV” value (IM, 2h) was 158.4 ng/mL, the plasma concentration (IM, 2h) was 100 ng/mL and 171 ng/mL and 124 ng/mL and 153 ng/mL and 195 ng/mL and 254 ng/mL and 139 ng/mL and 131 ng/mL and the “plasma concentration, AV” value (IM, 3h) was 123.2 ng/mL. The plasma concentration (IM, 3h) was 92.5 ng/mL and 183 ng/mL and 129 ng/mL and 115 ng/mL and 122 ng/mL and 146 ng/mL and 111 ng/mL and 87 ng/mL, the “plasma concentration, AV” value (IM, 4h) was 84.54 ng/mL and the plasma concentration (IM, 4h) was 67.6 ng/mL and 99.6 ng/mL and 79.9 ng/mL and 104 ng/mL and 84.5 ng/mL and 117 ng/mL and 51.6 ng/mL and 72.1 ng/mL. For the same compound, the “plasma concentration, AV” value (IM, 6h) was 37.03 ng/mL, the plasma concentration (IM, 6h) was 27 ng/mL and 51.8 ng/mL and 31.4 ng/mL and 43.1 ng/mL and 35.8 ng/mL and 43.3 ng/mL and 20 ng/mL and 43.8 ng/mL and the “plasma concentration, AV” value (IM, 8h) was 18.45 ng/mL. For the same compound, the plasma concentration (IM, 8h) was 13.1 ng/mL and 25.3 ng/mL and 16.7 ng/mL and 19.2 ng/mL and 15 ng/mL and 22.7 ng/mL and 13 ng/mL and 22.6 ng/mL, the “plasma concentration, AV” value (IM, 12h) was 6.302 ng/mL and the plasma concentration (IM, 12h) was 1.85 ng/mL and 6.51 ng/mL and 5.87 ng/mL and 6.37 ng/mL and 4.83 ng/mL and 6.04 ng/mL and 9.7 ng/mL and 9.25 ng/mL. The AUCINF_obs (IM, individual mice) was 1087.9 and 805.258 and 1373.07 and 1092.7 and 1076.67 and 1204.87 and 1450.76 and 1023.1, the AUCINF_pred (IM, individual mice) was 1087.68 and 805.26 and 1373.07 and 1092.68 and 1076.58 and 1204.84 and 1450.76 and 1021.5 and the AUC_%Extrap_obs (IM, individual mice) was 3.4748% and 0.4887% and 1.3883% and 1.9994% and 1.9823% and 1.3449% and 1.2619% and 9.501%. For the same compound, the AUC_%Extrap_pred (IM, individual mice) was 3.4549% and 0.489% and 1.388% and 1.9971% and 1.9741% and 1.3423% and 1.262% and 9.3589%, the AUCall (IM, individual mice) was 1050.1 and 801.322 and 1354.01 and 1070.85 and 1055.33 and 1188.66 and 1432.45 and 925.896 and the AUClast (IM, individual mice) was 1050.1 and 801.322 and 1354.01 and 1070.85 and 1055.33 and 1188.66 and 1432.45 and 925.896. For the same compound, the AUMCINF_obs (IM, individual mice) was 3193.81 and 1900.71 and 3591.01 and 2771.66 and 3099.57 and 2821.33 and 3581.57 and 4169.2, the AUMCINF_pred (IM, individual mice) was 3190.21 and 1900.74 and 3590.96 and 2771.26 and 3098.18 and 2820.84 and 3581.6 and 4133.86 and the AUMC_%Extrap_obs (IM, individual mice) was 19.0405% and 2.9249% and 7.9241% and 12.3927% and 10.57% and 8.8194% and 7.6827% and 51.3426%. For the same compound, the AUMC_%Extrap_pred (IM, individual mice) was 18.949% and 2.9266% and 7.9228% and 12.3802% and 10.53% and 8.8035% and 7.6834% and 50.9267%, the AUMClast (IM, individual mice) was 2585.7 and 1845.12 and 3306.46 and 2428.17 and 2771.94 and 2572.51 and 3306.41 and 2028.62 and the Cl_F_obs (IM, individual mice) was 9192.03 and 0.0124 and 0.0073 and 0.0092 and 0.0093 and 0.0083 and 0.0069. For the same compound, the Cl_F_pred (IM, individual mice) was 0.0124 and 0.0073 and 0.0092 and 0.0093 and 0.0083 and 0.0069, the Clast (IM, individual mice) was 9.25 and 1.85 and 6.51 and 5.87 and 6.37 and 4.83 and 6.04 and 9.7 and the Cmax (IM, individual mice) was 520 and 469 and 730 and 550 and 410 and 609 and 667 and 531. The HL_Lambda_z (IM, individual mice) was 2.8327 and 1.4744 and 2.0296 and 2.5798 and 2.3224 and 2.3255 and 2.1008 and 6.9461, the Tlag (IM, individual mice) was 0 and the Tlast (IM, individual mice) was 12. For the same compound, the Lambda_z (IM, individual mice, non-compartmental analysis) was 0.2447 and 0.4701 and 0.3415 and 0.2687 and 0.2985 and 0.2981 and 0.3299 and 0.0998, the MRTINF_obs (IM, individual mice, in h) was 2.9358 and 2.3604 and 2.6153 and 2.5365 and 2.8788 and 2.3416 and 2.4688 and 4.0751 and the MRTINF_pred (IM, individual mice, in h) was 2.9331 and 2.3604 and 2.6153 and 2.5362 and 2.8778 and 2.3413 and 2.4688 and 4.0469. For the same compound, the MRTlast (IM, individual mice, in h) was 2.4623 and 2.3026 and 2.442 and 2.2675 and 2.6266 and 2.1642 and 2.3082 and 2.191, the Tmax (IM, individual mice, in h) was 0.25 and 0.33 and 0.5 and 0.17 and 0.75 and the “plasma concentration, AV” value (IV, 0.083h) was 4.976 ng/mL.
